The values below come from the supplement of paper PMC11061612.

What all share (assay): Bliss excess, mean over the matrix (fraction); higher = more synergy
The test system of experiment [1] is A704 (Kidney Carcinoma). Put shortly:
(§1)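 Cell lines grown in DMEM/F12 or RPMI with 10% FBS were plated in 1536-well plates and held 24 hours at 37°C, 5% CO2 before 72 hours of exposure to two-drug dose matrices, with DMSO typically at 0.2%. CellTiter-Glo 2.0 luminescence gave viability, which was converted to inhibition. Vehicle wells were set to 0 and blank wells to 1. Combination Emax is the second-highest inhibition in the matrix, and Bliss excess is the observed combination effect minus the expected EA + EB − EA·EB, where EA and EB are the single-agent effects.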

The test system of experiment [2] is BT-20 (Breast Carcinoma). An outline of the steps: as §1
For experiment [3], the system named is DG-75 (Burkitt's Lymphoma). Put shortly: as §1
Experiment [4] has as its system EW-3 (Ewing's Sarcoma). Put shortly:
as §1

For experiment [5], the system named is GI-1 (Glioblastoma). An outline of the steps:
as §1

The subject of experiment [6] is HC-1 (Other Blood Carcinomas). An outline of the steps:
as §1

For experiment [7], the system named is HSC-2 (Oral Cavity Carcinoma). An outline of the steps: as §1
Experiment [8] has as its system IMR-5 (Neuroblastoma). An outline of the steps:
as §1

For experiment [9], the system named is KP-2 (Pancreatic Carcinoma). An outline of the steps: as §1
Experiment [10] deals with LC4-1 (B-Lymphoblastic Leukemia). Put shortly: as §1
The subject of experiment [11] is LOU-NH91 (Squamous Cell Lung Carcinoma). Put shortly:
as §1

The subject of experiment [12] is NCI-H1573 (Lung Adenocarcinoma). An outline of the steps:
as §1

In experiment [13] the test system is NCI-H2405 (Lung Adenocarcinoma). Put shortly:
as §1

Experiment [14] relates to NCI-H513 (Other Solid Carcinomas). Put shortly: as §1
In experiment [15] the test system is NCI-N87 (Gastric Carcinoma). Put shortly: as §1
The test system of experiment [16] is OCUM-1 (Gastric Carcinoma). Put shortly: as §1
Experiment [17] deals with PF-382 (T-Lymphoblastic Leukemia). Put shortly:
as §1

Experiment [18] concerns RPMI-7951 (Melanoma). Put shortly: as §1
Experiment [19] relates to SNU-C1 (Colorectal Carcinoma). Put shortly: as §1

As to `C=CCn1c(=O)c2cnc(Nc3ccc(N4CCN(C)CC4)cc3)nc2n1-c1cccc(C(C)(C)O)n1` [AZD1775] + O=C(c1cc(Cc2n[nH]c(=O)c3ccccc23)ccc1F)N1CCN(C(=O)C2CC2)CC1 [Olaparib] (first compound max 1 µM, partner max 10 µM), the Bliss excess in [1] is -0.0396; in experiment [2], -0.0681; in experiment [3], -0.0491; in [4], -0.0619; in [5], 0.0056; in [6], -0.0393. In addition, the Bliss excess was -0.0249 in experiment [7]; -0.0161 in experiment [8]; -0.0145 in experiment [9]; 0.0226 in experiment [10]; -0.0271 in experiment [11]; -0.0251 in [12]. Besides, the Bliss excess in experiment [13] is -0.0675; in [14], -0.0399; in experiment [15], -0.046; in experiment [16], -0.0214; in experiment [17], -0.0265; in experiment [18], -0.0176. Besides, the Bliss excess in experiment [19] was -0.0721.
Turning to `COc1cccc(OCCCN)c1-c1cc(Nc2cnc(C#N)cn2)n[nH]1` [Prexasertib] + C[C@@H]1COCCN1C2=NC(=NC(=C2)C3(CC3)[S@](=N)(=O)C)C4=C5C=CNC5=NC=C4 [AZD6738] (first compound max 1 µM, 7x7, partner max 10 µM), the Bliss excess in experiment [1] is 0.0224; in [2] it was -0.0218; in [3], -0.0381; in [4], -0.0275; in experiment [5] it was -0.0195; in [6] it was -0.0139. The Bliss excess in [7] is 0.0649; in experiment [8] it was -0.01; in [9], -0.0324; in experiment [10], -0.0033; in experiment [11] it was 0.0295; in experiment [12] it was 0.0055. Besides, the Bliss excess is 0.0046 in [13]; -0.0104 in experiment [14]; -0.0253 in [15]; -0.0698 in experiment [16]; -0.0558 in experiment [17]; -0.0372 in experiment [18]. In addition, the Bliss excess in experiment [19] was -0.0078.
Consider `Cc1cc2ncnn2cc1Nc1ncc2c(n1)n(C1CCOCC1)c(=O)n2C` [AZD7648] + C[C@@H]1COCCN1C2=NC(=NC(=C2)C3(CC3)[S@](=N)(=O)C)C4=C5C=CNC5=NC=C4 [AZD6738] (first compound max 10 µM, 7x7, partner max 10 µM), for which the Bliss excess is 0.0177 in experiment [1]; 0.0399 in experiment [2]; -0.0477 in experiment [3]; -0.0607 in experiment [4]; 0.018 in [5]; -0.131 in experiment [6]. Also, the Bliss excess was determined as 0.0627 in [7]; 0.0088 in experiment [8]; 0.0004 in experiment [9]; 0.0469 in experiment [10]; 0.0337 in experiment [11]; 0.0363 in [12]. Further, the Bliss excess is 0.0068 in experiment [13]; -0.0383 in [14]; 0.024 in experiment [15]; 0.009 in experiment [16]; 0.0263 in [17]; 0.0028 in experiment [18]. Besides, the Bliss excess in [19] is -0.0708.
With `CN(C)CCCOc1ccc(-c2ccc3ncc4c(c3c2)n(C2CCOCC2)c(=O)n4C)cn1` [AZD0156] + C=CCn1c(=O)c2cnc(Nc3ccc(N4CCN(C)CC4)cc3)nc2n1-c1cccc(C(C)(C)O)n1 [AZD1775] (first compound max 1 µM, partner max 1 µM), the Bliss excess was -0.0484 in [1]; -0.0937 in experiment [2]; 0.0097 in experiment [3]; 0.002 in experiment [4]; -0.0207 in experiment [5]; -0.0238 in experiment [6]. Moreover, the Bliss excess in experiment [7] is -0.0507; in experiment [8] it was -0.0214; in experiment [9], -0.0331; in experiment [10], -0.0353; in experiment [11] it was -0.0349; in experiment [12] it was -0.0537. In addition, the Bliss excess was -0.0544 in experiment [13]; 0.001 in [14]; -0.0181 in experiment [15]; 0.0183 in experiment [16]; -0.0121 in experiment [17]; -0.0055 in [18]. For the same compound, the Bliss excess in [19] was -0.0401.
For the compound `CCN(CCO)CCCOc1ccc2c(Nc3cc(CC(=O)Nc4cccc(F)c4)[nH]n3)ncnc2c1` [AZD2811] + C[C@@H]1COCCN1C2=NC(=NC(=C2)C3(CC3)[S@](=N)(=O)C)C4=C5C=CNC5=NC=C4 [AZD6738] (first compound max 1 µM, 7x7, partner max 10 µM), the Bliss excess in experiment [1] is -0.0087; in experiment [2], -0.0356; in experiment [3], -0.0611; in [4] it was -0.0152; in experiment [5], 0.0144; in experiment [6] it was -0.007. Also, the Bliss excess in experiment [7] was -0.0424; in experiment [8], -0.0339; in experiment [9], -0.0084; in [10], -0.0882; in experiment [11], -0.0583; in [12], -0.0613. The Bliss excess was -0.0526 in experiment [13]; -0.0145 in experiment [14]; -0.0855 in [15]; -0.0188 in experiment [16]; -0.089 in [17]; -0.0291 in experiment [18]. In addition, the Bliss excess in experiment [19] is -0.122.
Take `COc1cccc(OCCCN)c1-c1cc(Nc2cnc(C#N)cn2)n[nH]1` [Prexasertib] + C=CCn1c(=O)c2cnc(Nc3ccc(N4CCN(C)CC4)cc3)nc2n1-c1cccc(C(C)(C)O)n1 [AZD1775] (first compound max 1 µM, partner max 1 µM): the Bliss excess in experiment [1] came to 0.018; in [2], 0.0725; in [3], 0.0708; in experiment [4] it was 0.0286; in experiment [5] it was 0.05; in [6], 0.0149. Moreover, the Bliss excess amounted to 0.178 in [7]; 0.12 in experiment [8]; 0.112 in [9]; 0.0128 in experiment [10]; 0.0332 in [11]; 0.108 in experiment [12]. Moreover, the Bliss excess in [13] was 0.032; in [14], 0.0545; in experiment [15] it was -0.0324; in experiment [16], 0.0518; in experiment [17], -0.0038; in experiment [18], 0.0723. Further, the Bliss excess in experiment [19] came out at 0.0175.
Regarding `CCN(CCO)CCCOc1ccc2c(Nc3cc(CC(=O)Nc4cccc(F)c4)[nH]n3)ncnc2c1` [AZD2811] + C=CCn1c(=O)c2cnc(Nc3ccc(N4CCN(C)CC4)cc3)nc2n1-c1cccc(C(C)(C)O)n1 [AZD1775] (first compound max 1 µM, partner max 1 µM), the Bliss excess is -0.0547 in experiment [1]; -0.0073 in experiment [2]; 0.086 in experiment [3]; 0.0844 in experiment [4]; 0.0285 in [5]; 0.0697 in experiment [6]. The Bliss excess in experiment [7] was 0.0771; in [8], -0.0064; in experiment [9] it was -0.001; in experiment [10] it was -0.109; in [11], -0.0257; in experiment [12] it was -0.0457. In addition, the Bliss excess was -0.021 in [13]; -0.0195 in [14]; -0.0657 in experiment [15]; -0.0127 in experiment [16]; -0.0432 in [17]; 0.0106 in [18]. The Bliss excess in [19] is -0.0321.
